Consider nine compounds from US10954214B2 (Janssen Pharmaceutica NV, priority 2016, dated 2021).

pIC50: −log10 of the molar value.

One experiment has as its system Jurkat cells. As to the kind of experiment: PMA Induced IL2 Production In Jurkat Cells. The experiment is classed as cell-based. The settings on record: Homo sapiens, PMA/Ionomycin, 20 h, read-out: IL-2 prod h Jurkat PMA IC50. On the procedure: Jurkat cells were maintained in complete RPMI 1640 media containing 10% fetal bovine serum, 10 mM HEPES, 100 units/mL of penicillin and 100 μg/mL of streptomycin. Prior to the assay, compounds were made 2- to 4-fold serial dilutions in DMSO. A volume of 10 μL of DMSO-diluted compound in each well were further diluted into 240 μL RPMI1640 complete media. Jurkat cells were harvested by centrifuge at 1200 RPM for 5 min, washed one time with RPMI 1640 media, and suspended in fresh complete RPMI 1640 media at concentration of 1.25×10^6 cell/mL. A volume of 160 uL of Jurkat cells (2×10^5 cells) were seeded in each well of 96 well plate-bottom plates. A volume of 20 uL of diluted compound in RMPI 1640 complete media were added to each well and incubated with Jurkat cells for 30 min at 37° C. in a 5% CO2 incubator. A volume 20 μL of diluted PMA/Ionomycin (81 nM/1.3 uM respectively, ebioscience, catalog number 00-4970-93) in RMPI 1640 complete media were added to each well. After incubation at 37° C. in 5% CO2 incubator for 20 h, supernatants were harvested. IL-2 concentration was assessed by ELISA (IL2 Duoset, R&D Systems, catalog number DY202). Colorimetric intensity at 450 nm was read by Spectramax plate reader and analyzed with Softmax Pro software. Cell viability was assessed by Cell Titer Glo kit (Promega, catalog number G7571) using Victor Luminescence reader (Victor 3V 4202938 by Perkin Elmer).

Experiment [1] concerns the target full-length MALT1 protein (Strep-MALT1(1-824)-His) (Homo sapiens (Human), UniProt Q9UDY8). As to the kind of experiment: MALT1 Biochemical Protease Assay (Ac-LRSR-AMC substrate). The settings on record: 10 nM FL MALT1, 200 μM Ac-LRSR-AMC, 4 h at RT; read-out: MALT1_Biochemical activity (Ac-LRSR-amc) IC50. In short, it runs like this:
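Fluorescence from AMC release off the quenched LRSR substrate was read after a 4 h reaction at RT. Values were normalised to no-enzyme and uninhibited controls and fitted for IC50 and Hill coefficient.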

Another experiment relates to OCI-Ly3 cells. Put plainly: 4-day proliferation assay, OCI-Ly3. The experiment is classed as cell-based, human. The settings on record: Homo sapiens, 96 h, 4 days incubation, CellTiterGLO, read-out: Anti-proliferation: OCI-LY-3 IC50. In short, it runs like this:
(§1)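 Each line was plated at 10,000 cells per well for linear growth, with no beta-mercaptoethanol during the assay. OCI-Ly3 cells were below passage 10.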

The test system of another experiment is TMD8 cells. Put plainly: 4-day proliferation assay, TMD8. The class given is cell-based. The settings on record: Homo sapiens, 96 h, 4 days incubation, CellTiterGLO, read-out: Anti-proliferation: TMD-8 IC50. The method in brief: as §1
The subject of experiment [2] is IL6 secretion by TMD8 ABC-DLBCL cells. As to the kind of experiment: Human IL6 Mesoscale assay (TMD-8). The class given is cell-based. The settings on record: Homo sapiens, TMD8; TMD-8 cells, 24 h. The method in brief: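 100,000 cells/well treated with compound in 9 twofold steps from 15 μM to 58.6 nM (0.3% DMSO) for 24 h at 37° C; supernatant cytokine measured by MSD electrochemiluminescence sandwich immunoassay. DMSO wells set maximum signal, BTK inhibitor RN486 (30 nM to 131 pM) set maximum inhibition.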

full-length MALT1 protein (Strep-MALT1(1-824)-His), sequence (Q9UDY8 whole entry): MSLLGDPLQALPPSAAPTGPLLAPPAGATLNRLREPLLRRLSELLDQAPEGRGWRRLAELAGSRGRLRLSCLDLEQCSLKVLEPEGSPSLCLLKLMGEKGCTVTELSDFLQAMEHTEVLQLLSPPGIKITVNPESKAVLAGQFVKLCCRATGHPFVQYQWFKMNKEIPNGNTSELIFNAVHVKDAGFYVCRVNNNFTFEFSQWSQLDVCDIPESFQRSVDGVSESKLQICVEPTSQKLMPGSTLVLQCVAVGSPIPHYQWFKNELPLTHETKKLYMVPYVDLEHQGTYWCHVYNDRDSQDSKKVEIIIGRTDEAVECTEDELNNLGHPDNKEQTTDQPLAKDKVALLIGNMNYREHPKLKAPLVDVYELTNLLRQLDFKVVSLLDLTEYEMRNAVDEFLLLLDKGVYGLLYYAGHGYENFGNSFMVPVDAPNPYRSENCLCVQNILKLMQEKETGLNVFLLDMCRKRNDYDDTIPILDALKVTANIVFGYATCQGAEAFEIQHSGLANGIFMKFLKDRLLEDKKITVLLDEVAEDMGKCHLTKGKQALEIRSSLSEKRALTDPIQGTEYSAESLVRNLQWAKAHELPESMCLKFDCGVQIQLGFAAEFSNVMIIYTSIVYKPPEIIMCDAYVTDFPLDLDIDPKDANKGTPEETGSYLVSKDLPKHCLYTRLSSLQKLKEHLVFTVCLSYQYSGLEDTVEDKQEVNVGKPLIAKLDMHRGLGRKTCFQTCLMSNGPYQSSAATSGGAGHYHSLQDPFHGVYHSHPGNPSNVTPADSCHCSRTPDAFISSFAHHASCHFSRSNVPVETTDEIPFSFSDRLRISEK

On to `N#Cc1cc(NC(=O)c2cnn(-c3cccc4ccccc34)c2C(F)(F)F)ccn1` [Cpd 1, N-(2-Cyanopyridin-4-yl)-1-(naphthalen-1-yl)-5-(trifluoromethyl)-1H-pyrazole-4-carboxamide], for which the pIC50 in the experiment on Jurkat cells was 6.51; in experiment [1], 6.41.

Take `N#Cc1cncc(NC(=O)c2cnn(-c3cccc4ccccc34)c2C(F)(F)F)c1` [Cpd 5, N-(5-Cyanopyridin-3-yl)-1-(naphthalen-1-yl)-5-(trifluoromethyl)-1H-pyrazole-4-carboxamide]: the pIC50 with Jurkat cells was 6.85; in the experiment with OCI-Ly3 cells, around 6.11; in experiment [1] it was 6.67; in the experiment with TMD8 cells, below 4.70; in experiment [2] it was 6.55.

As for `O=C(Nc1ccnc(C(F)(F)F)c1)c1cnn(-c2cccc3ncccc23)c1C(F)(F)F` [Cpd 6, 1-(Quinolin-5-yl)-5-(trifluoromethyl)-N-(2-(trifluoromethyl)pyridin-4-yl)-1H-pyrazole-4-carboxamide], the pIC50 in the experiment with Jurkat cells was 7.64; with OCI-Ly3 cells, 6.21; in experiment [1], 7.04; in the experiment on TMD8 cells, 5.03; in experiment [2] it was 6.95.

Turning to `COc1ncc(NC(=O)c2cnn(-c3cccc4ncccc34)c2C(F)(F)F)cc1Cl` [Cpd 7, N-(5-Chloro-6-methoxypyridin-3-yl)-1-(quinolin-5-yl)-5-(trifluoromethyl)-1H-pyrazole-4-carboxamide], the pIC50 was 6.89 with Jurkat cells; 6.37 with OCI-Ly3 cells; 7.39 in experiment [1]; around 4.85 with TMD8 cells; 6.78 in experiment [2].

With `O=C(Nc1cnc(-n2nccn2)c(Cl)c1)c1cnn(-c2cccc3ncccc23)c1C(F)(F)F` [Cpd 8, N-(5-Chloro-6-(2H-1,2,3-triazol-2-yl)pyridin-3-yl)-1-(quinolin-5-yl)-5-(trifluoromethyl)-1H-pyrazole-4-carboxamide], the pIC50 with Jurkat cells was 8.28; in the experiment with OCI-Ly3 cells, 6.96; in experiment [1], 7.89; with TMD8 cells it was around 5.12; in experiment [2] it was 7.49.

On to `Cc1cc2ccccc2c(-n2ncc(C(=O)Nc3cnc(-n4nccn4)c(Cl)c3)c2C(F)(F)F)n1` [Cpd 9, N-(5-Chloro-6-(2H-1,2,3-triazol-2-yl)pyridin-3-yl)-1-(3-methylisoquinolin-1-yl)-5-(trifluoromethyl)-1H-pyrazole-4-carboxamide], for which the pIC50 was 7.41 with Jurkat cells; around 5.62 in the experiment with OCI-Ly3 cells; 7.19 in experiment [1]; 4.97 in the experiment on TMD8 cells; 6.71 in experiment [2].

As for `O=C(Nc1ccc(-n2nccn2)c(Cl)c1)c1cnn(-c2cccc3ccncc23)c1C(F)(F)F` [Cpd 11, N-(3-chloro-4-(2H-1,2,3-triazol-2-yl)phenyl)-1-(isoquinolin-8-yl)-5-(trifluoromethyl)-1H-pyrazole-4-carboxamide], the pIC50 with Jurkat cells was 6.17; in the experiment on OCI-Ly3 cells, around 5.02; in experiment [1] it was 6.01; in the experiment with TMD8 cells, 4.90; in experiment [2] it was around 4.87.

As for `CCc1c(C(=O)Nc2cnc(-n3nccn3)c(Cl)c2)cnn1-c1cccc2ncccc12` [Cpd 17, N-(5-Chloro-6-(2H-1,2,3-triazol-2-yl)pyridin-3-yl)-5-ethyl-1-(quinolin-5-yl)-1H-pyrazole-4-carboxamide], the pIC50 in the experiment with Jurkat cells is 6.77; in the experiment with OCI-Ly3 cells, around 5.36; in experiment [1] it was 6.85; with TMD8 cells it was 5.03; in experiment [2], 6.10.

As for `N#Cc1cc(NC(=O)c2cnn(-c3cccc4ccncc34)c2C(F)(F)F)cnc1-n1nccn1` [Cpd 19, N-(5-cyano-6-(2H-1,2,3-triazol-2-yl)pyridin-3-yl)-1-(isoquinolin-8-yl)-5-(trifluoromethyl)-1H-pyrazole-4-carboxamide], the pIC50 in the experiment on Jurkat cells was 6.39; with OCI-Ly3 cells it was 5.96; in experiment [1], 6.64; in the experiment with TMD8 cells, below 4.70; in experiment [2], 5.71.
